Data on 56 compounds can be found in patent US20250042879A1, “HETEROCYCLIC SUBSTITUTED 1,3,4-THIADIAZOLE AND PYRIDAZINE COMPOUNDS AND METHODS OF USING THE SAME” (Rgenta Therapeutics, Inc., priority 2021, published 2025).

Counter-ions that a name gives are not always drawn.

One test has as its system HTT. Kind of test: Mini-gene reporter assay-HTT (firefly luciferase, exon inclusion). It is filed as cell-based. Particulars: HTT Minigene, 5 μM; read-out: % Efficacy at 5 μM. An excerpt: Mini-gene reporter constructs for each target site were constructed by first PCR amplifying the region-of-interest including the sequence of the alternatively skipped, sequences of the immediate upstream and downstream introns, and sequences of the immediate upstream and downstream exons. Then the 3′end of the amplified sequence was ligated to a firefly luciferase reporter gene and cloned into the pcDNA3.1 vector backbone. The final reporter construct was transiently transfected into HEK293 cells using Lipofectamine 3000 transfection reagents. Compounds that can induce the inclusion of the skipped exon in the reporter construct would increase the reporter firefly luciferase activity.
Test compounds were diluted in duplicates and dispensed into an assay plate. Transient mini-gene reporter cell line stock was resuspended and dispensed into the assay plate. Assay plates were then centrifuged and incubated. A luciferase reagent (e.g. ONE-Glo firefly luciferase reagent from Promega®) was added to the assay plate and the luminescence (RLU) signals recorded. EC50 values were determined by curve fitting in Levenberg-Marquardt algorithm.
In general terms: In a reporter assay the amount or activity of a reporter protein is the signal.
Take `Cc1cn2cc(-c3ccc(-c4ccc(C5CN(C6CCSC6)C5)nn4)c(O)c3)cc(F)c2n1` (centres unmarked) [Compound 70]: the Emax at 5 µM was in the range of 25 to 75%. The same measure, in the same setting: for `Cc1cn2cc(-c3ccc(-c4ccc(C5CN(Cc6cnn(C)c6)C5)nn4)c(O)c3)cc(F)c2n1` [Compound 71] the value was above 750%; for `Cc1cn2cc(-c3ccc(-c4ccc(C5CN(Cc6cc[nH]n6)C5)nn4)c(O)c3)cc(F)c2n1` [Compound 72], above 750%; for `Cc1cn2cc(-c3ccc(-c4ccc(C5CN(Cc6c[nH]nc6C)C5)nn4)c(O)c3)cc(F)c2n1` [Compound 73], above 750%. For the compound `Cc1cn2cc(-c3ccc(-c4ccc(C5CN(Cc6c(C)n[nH]c6C)C5)nn4)c(O)c3)cc(F)c2n1` [Compound 74], the Emax at 5 µM lay in the range of 25 to 75%. Still for that read-out and setting: for `Cc1cn2cc(-c3ccc(-c4ccc(C5CN(C6CCN(C)CC6)C5)nn4)c(O)c3)cc(F)c2n1` [Compound 75] the value was 25 to 75%; for `COCCC(C)N1CC(c2ccc(-c3ccc(-c4cc(F)c5nc(C)cn5c4)cc3O)nn2)C1` (centres unmarked) [Compound 76], above 750%; for `CCn1cc(CN2CC(c3ccc(-c4ccc(-c5cc(F)c6nc(C)cn6c5)cc4O)nn3)C2)cn1` [Compound 77], above 750%. Still for that read-out and setting: for `Cc1cn2cc(-c3ccc(-c4ccc(C5CN(Cc6ccn(C)n6)C5)nn4)c(O)c3)cc(F)c2n1` [Compound 80] the value was 25 to 75%. Regarding `Cc1cn2cc(-c3ccc(-c4ccc(C5CN(Cc6cn(C)nc6C)C5)nn4)c(O)c3)cc(F)c2n1` [Compound 81], the Emax at 5 µM is 25 to 75%. With `Cc1cn2cc(-c3ccc(-c4ccc(C5CN(Cc6cncnc6)C5)nn4)c(O)c3)cc(F)c2n1` [Compound 82], the Emax at 5 µM was 25 to 75%. Take `COCC(C)N1CC(c2ccc(-c3ccc(-c4cc(F)c5nc(C)cn5c4)cc3O)nn2)C1` (centres unmarked) [Compound 84]: the Emax at 5 µM was above 750%.

Turning to `Cc1cn2cc(-c3ccc(-c4ccc(C5CN(C6CCOCC6C)C5)nn4)c(O)c3)cc(F)c2n1` (centres unmarked) [Compound 85], the Emax at 5 µM was above 750%. In the case of `Cc1cn2cc(-c3ccc(-c4ccc(C5CN(CC6CCCOC6)C5)nn4)c(O)c3)cc(F)c2n1` (centres unmarked) [Compound 88], the Emax at 5 µM lay in the range of 25 to 75%. In the case of `Cc1cn2cc(-c3ccc(-c4ccc(C5CN(C6CCOC6)C5)nn4)c(O)c3)cc(F)c2n1` (centres unmarked) [Compound 89], the Emax at 5 µM is above 750%. `Cc1cn2cc(-c3ccc(-c4ccc(C5CN(Cc6cnco6)C5)nn4)c(O)c3)cc(F)c2n1` [Compound 90]: the Emax at 5 µM is 25 to 75%. Regarding `CCCn1cc(CN2CC(c3ccc(-c4ccc(-c5cc(F)c6nc(C)cn6c5)cc4O)nn3)C2)cn1` [Compound 91], the Emax at 5 µM was in the range of 25 to 75%.

For the compound `CCC(COC)N1CC(c2ccc(-c3ccc(-c4cc(F)c5nc(C)cn5c4)cc3O)nn2)C1` (centres unmarked) [Compound 92], the Emax at 5 µM is above 750%.

As to `Cc1cn2cc(-c3ccc(-c4ccc(C5CN(Cc6ccn(C)c6)C5)nn4)c(O)c3)cc(F)c2n1` [Compound 94], the Emax at 5 µM fell in the range of 25 to 75%. Still for that read-out and setting: the result for `Cc1cn2cc(-c3ccc(-c4ccc(C5CN(C(C)C6CCCO6)C5)nn4)c(O)c3)cc(F)c2n1` (centres unmarked) [Compound 95] reads above 750%; that for `Cc1cn2cc(-c3ccc(-c4ccc(C5CN(Cc6cc(C)n(C)n6)C5)nn4)c(O)c3)cc(F)c2n1` [Compound 96], below 25%; that for `Cc1cn2cc(-c3ccc(-c4ccc(C5CN(C6COCCOC6)C5)nn4)c(O)c3)cc(F)c2n1` [Compound 97], 25 to 75%. Same read-out and setting: the result for `Cc1cn2cc(-c3ccc(-c4ccc(C5CN(Cc6cc[nH]c6)C5)nn4)c(O)c3)cc(F)c2n1` [Compound 98] reads above 750%; that for `Cc1cn2cc(-c3ccc(-c4ccc(C5CN(C6CCCOCC6)C5)nn4)c(O)c3)cc(F)c2n1` (centres unmarked) [Compound 99], above 750%; that for `Cc1cn2cc(-c3ccc(-c4ccc(C5CN(Cc6cn(C)cn6)C5)nn4)c(O)c3)cc(F)c2n1` [Compound 100], 25 to 75%. For `Cc1cn2cc(-c3ccc(-c4ccc(C5CN(Cc6cocn6)C5)nn4)c(O)c3)cc(F)c2n1` [Compound 101], the Emax at 5 µM was in the range of 25 to 75%. Consider `Cc1cn2cc(-c3ccc(-c4ccc(C5CN(Cc6cnn(CCF)c6)C5)nn4)c(O)c3)cc(F)c2n1` [Compound 102], for which the Emax at 5 µM was above 750%.

For the compound `COC1CC(N2CC(c3ccc(-c4ccc(-c5cc(F)c6nc(C)cn6c5)cc4O)nn3)C2)C1` (centres unmarked) [Compound 103], the Emax at 5 µM lay in the range of 25 to 75%.

Take `COCC(C)CN1CC(c2ccc(-c3ccc(-c4cc(F)c5nc(C)cn5c4)cc3O)nn2)C1` (centres unmarked) [Compound 104]: the Emax at 5 µM lay within 25 to 75%. For the compound `Cc1cn2cc(-c3ccc(-c4ccc(C5CN(CC6CC6C)C5)nn4)c(O)c3)cc(F)c2n1` (centres unmarked) [Compound 105], the Emax at 5 µM was above 750%. Regarding `Cc1cn2cc(-c3ccc(-c4ccc(C5CN(C(C)Cc6cnn(C)c6)C5)nn4)c(O)c3)cc(F)c2n1` (centres unmarked) [Compound 106], the Emax at 5 µM is above 750%. Same read-out and setting: for `Cc1cn2cc(-c3ccc(-c4ccc(C5CN(C(C)CCn6cccn6)C5)nn4)c(O)c3)cc(F)c2n1` (centres unmarked) [Compound 107] the value was 25 to 75%; for `Cc1cn2cc(-c3ccc(-c4ccc(C5CN(CC6(F)CC6)C5)nn4)c(O)c3)cc(F)c2n1` [Compound 108], above 750%. Still for that read-out and setting: the result for `Cc1cn2cc(-c3ccc(-c4ccc(C5CN(CC6CCSCC6)C5)nn4)c(O)c3)cc(F)c2n1` [Compound 109] reads above 750%; that for `Cc1cn2cc(-c3ccc(-c4ccc(C5CN(CC6(C)COC6)C5)nn4)c(O)c3)cc(F)c2n1` [Compound 110], 25 to 75%; that for `Cc1cn2cc(-c3ccc(-c4ccc(C5CN(CC6CCSC6)C5)nn4)c(O)c3)cc(F)c2n1` (centres unmarked) [Compound 111], above 750%. As for `Cc1cn2cc(-c3ccc(-c4ccc(C5CN(CC6(C(F)F)CC6)C5)nn4)c(O)c3)cc(F)c2n1` [Compound 112], the Emax at 5 µM fell in the range of 25 to 75%.

As for `Cc1cn2cc(-c3ccc(-c4ccc(C5CN(C6CCOC7(CCC7)C6)C5)nn4)c(O)c3)cc(F)c2n1` (centres unmarked) [Compound 113], the Emax at 5 µM fell in the range of 25 to 75%. With `Cc1cn2cc(-c3ccc(-c4ccc(C5CN(Cc6conc6C)C5)nn4)c(O)c3)cc(F)c2n1` [Compound 114], the Emax at 5 µM is below 25%.

As for `Cc1cn2cc(-c3ccc(-c4ccc(C5CN(C(C)Cc6cnccn6)C5)nn4)c(O)c3)cc(F)c2n1` (centres unmarked) [Compound 115], the Emax at 5 µM fell in the range of 25 to 75%. Regarding `Cc1cn2cc(-c3ccc(-c4ccc(C5CN(Cc6cn(C(C)C)nn6)C5)nn4)c(O)c3)cc(F)c2n1` [Compound 116], the Emax at 5 µM fell in the range of 25 to 75%. Regarding `Cc1cn2cc(-c3ccc(-c4ccc(C5CN(Cc6cnn(C)n6)C5)nn4)c(O)c3)cc(F)c2n1` [Compound 117], the Emax at 5 µM fell in the range of 25 to 75%. Still for that read-out and setting: the result for `Cc1cn2cc(-c3ccc(-c4ccc(C5CN(C6COC(C)C6)C5)nn4)c(O)c3)cc(F)c2n1` (centres unmarked) [Compound 119] reads 25 to 75%; that for `Cc1cn2cc(-c3ccc(-c4ccc(C5CN(C(C)Cn6cncn6)C5)nn4)c(O)c3)cc(F)c2n1` (centres unmarked) [Compound 120], below 25%.

On to `Cc1cn2cc(-c3ccc(-c4ccc(C5CN(Cc6ccc[nH]c6=O)C5)nn4)c(O)c3)cc(F)c2n1` [Compound 121], for which the Emax at 5 µM was in the range of 25 to 75%. On to `Cc1cn2cc(-c3ccc(-c4ccc(C5CN(C(C)C6CCCCO6)C5)nn4)c(O)c3)cc(F)c2n1` (centres unmarked) [Compound 122], for which the Emax at 5 µM was in the range of 25 to 75%. Still for that read-out and setting: for `CCn1cc(CN2CC(c3ccc(-c4ccc(-c5cc(F)c6nc(C)cn6c5)cc4O)nn3)C2)nn1` [Compound 123] the value was 25 to 75%; for `Cc1cn2cc(-c3ccc(-c4ccc(C5CN(C6CC7(COC(C)C7)C6)C5)nn4)c(O)c3)cc(F)c2n1` (centres unmarked) [Compound 124], 25 to 75%. Regarding `CCn1cnc(CN2CC(c3ccc(-c4ccc(-c5cc(F)c6nc(C)cn6c5)cc4O)nn3)C2)c1` [Compound 125], the Emax at 5 µM fell in the range of 25 to 75%. Still for that read-out and setting: the result for `COc1nn(C)cc1CN1CC(c2ccc(-c3ccc(-c4cc(F)c5nc(C)cn5c4)cc3O)nn2)C1` [Compound 126] reads 25 to 75%; that for `COCn1nccc1CN1CC(c2ccc(-c3ccc(-c4cc(F)c5nc(C)cn5c4)cc3O)nn2)C1` [Compound 127], below 25%; that for `Cc1cn2cc(-c3ccc(-c4ccc(C5CN(C6CCc7cn[nH]c7C6)C5)nn4)c(O)c3)cc(F)c2n1` (centres unmarked) [Compound 128], 25 to 75%.

Staying with this test, now noted: Homo sapiens; HTT mini-gene firefly luciferase reporter transiently transfected into HEK293 cells.
The term EC50 denotes the concentration giving half of the maximal effect. Low readings indicate greater potency, high ones weaker potency. `Cc1cn2nc(-c3ccc(-c4ccc(C5CN(C6CCOCC6)C5)nn4)c(O)c3)ccc2n1` [Compound 63, 5-(2-methylimidazo[1,2-b]pyridazin-6-yl)-2-(6-(1-(tetrahydro-2H-pyran-4-yl)azetidin-3-yl)pyridazin-3-yl)phenol hydrochloride] had an EC50 of 500 to 1000 nM. On to `Cc1cn2nc(-c3ccc(-c4ccc(C5CN(C6CCOCC6)C5)nn4)c(O)c3)cc(C)c2n1` [Compound 64, 5-(2,8-dimethylimidazo[1,2-b]pyridazin-6-yl)-2-(6-(1-(tetrahydro-2H-pyran-4-yl)azetidin-3-yl)pyridazin-3-yl)phenol hydrochloride], for which the concentration for a half-maximal effect (EC50) fell in the range of 500 to 1000 nM. Still for that read-out and setting: for `COc1cc(-c2ccc(-c3ccc(C4CN(C5CCOCC5)C4)nn3)c(O)c2)nc2cn(C)nc12` [Compound 65, 5-(7-methoxy-2-methyl-2H-pyrazolo[4,3-b]pyridin-5-yl)-2-(6-(1-(tetrahydro-2H-pyran-4-yl)azetidin-3-yl)pyridazin-3-yl)phenol hydrochloride] the value was at least 1000 nM; for `CCN1CC(c2ccc(-c3ccc(-c4cc(OC)c5nn(C)cc5n4)cc3O)nn2)C1` [Compound 66, 2-(6-(1-ethylazetidin-3-yl)pyridazin-3-yl)-5-(7-methoxy-2-methyl-2H-pyrazolo[4,3-b]pyridin-5-yl)phenol hydrochloride], at least 1000 nM.
